Source: article PMC12089509, “NorA Efflux Pump Inhibitors: Expanding SAR Knowledge of Pyrazolo[4,3‐c][1,2]benzothiazine 5,5‐Dioxide Derivatives” (Archiv Der Pharmazie, 2025)
Values after ≈ are worked out from the molar mass of the structure shown. Like-named read-outs stand apart in the source and are kept apart here.

Assays:
[1] = test system: Staphylococcus aureus SA-1199B; assay: MIC determination (broth microdilution) against SA-1199B; type: cell-based; settings: SA1199B
Source text: (§1) In this study, the S. aureus strains SA‐1199B (overexpressing norA) and its isogenic parent SA‐1199 (wild type), the pair SA‐K1902 (norA‐depleted) and SA‐K2378 (complemented with a pCU1 plasmid harboring the norA promoting and coding region from SA‐1199B), were used to test EPI activity as described in a previous study. Furthermore, the S. aureus ATCC 29213 was used as the reference strain in MIC determination experiments.

[2] = test system: S. aureus SA-K1902 (norA-); assay: MIC evaluation against SA-K1902; type: cell-based, Staphylococcus aureus; settings: for MIC: Staphylococcus aureus
Source text: (§2) Conversely, interesting results were obtained against SA‐K2378, which overexpresses the norA gene (Table 2). […] This corroborates the hypothesis that their activity is strictly related to NorA EP inhibition.
as §1

[3] = test system: S. aureus SA-K2378 (norA ++); assay: MIC evaluation against SA-K2378; type: cell-based, Staphylococcus aureus; settings: for MIC: Staphylococcus aureus
Source text: as §2, §1

[4] = test system: Staphylococcus aureus SA-K2378 biofilm; type: cell-based
Source text: The formation of biofilms is a significant contributor to the development of AMR [1, 26, 27]. This is due to the fact that biofilms provide a protective environment for bacteria, thereby rendering them more resilient to the effects of common antibacterial agents. Over the years, several investigations have been conducted to study the role of EPs in the various stages of microbial biofilm formation. However, a definitive answer regarding the potential role of EPs in this microbial pathway remains elusive. While some studies have reported a negative effect of certain EPs on biofilm formation, others have highlighted the promising role of EPIs in limiting biofilm formation and enhancing the efficacy of antibiotics under biofilm conditions.
The biofilm production by SA‐K1902 and SA‐K2378 strains was analyzed in flat 96‐well microtiter plates as previously described, with some modifications. […] The microplates were incubated at 37°C for 24 h in static conditions. After incubation, the biofilms were washed three times with distilled water, dried at 60°C for 1 h, and stained with 0,1% crystal violet for 10 min. After staining, the crystal violet was removed and the wells were washed three times with water, dried at 37°C for 30 min, and the bound crystal violet was solubilized with 96% ethanol in shaking conditions. At the end of the destaining, the absorbance (570 nm) of the solutions in each well was measured using the FLUOstar Omega plate reader (BMG‐LABTECH, Germany) to quantify the biofilm produced in each condition compared with the control (biofilm produced by the strain without any compound/antibiotic). Biofilm assays were performed in triplicate for each condition.

[5] = target: T1, S. aureus NorA efflux pump (SA-1199B strain, overexpresses the norA gene) (Staphylococcus aureus, UniProt P0A0J7); assay: EtBr efflux inhibition assay; type: cell-based; settings: for inhibition at 10 µM: read-out: EtBr efflux inhibition (%), compound at 10 µM, SA-1199B; for inhibition at 50 µM: read-out: EtBr efflux inhibition (%), compound at 50 µM, SA-1199B
T1 construct: endogenous in cells; host or cells: S. aureus SA-1199B (overexpresses norA; isogenic parent SA-1199)
Procedure: EtBr efflux inhibition assays were conducted using the S. aureus SA‐1199B strain, which overexpresses the norA gene and has an A116E GrlA substitution. Each compound was tested at 50 µM (see Figure 2). The starting hit compound 1 was used as the internal standard for comparison with the previously reported data.
The cells were grown overnight in cation‐supplemented Mueller–Hinton broth (CAMHB) without any additives at 35°C. The organisms were subsequently diluted into CAMHB to obtain an optical density at 600 nm (OD600) of 0.7–0.8. Subsequently, the cells were pelleted and resuspended at an OD600 of 0.8 in 0.5 mL aliquots of CAMHB containing EtBr and carbonyl cyanide m‐chlorophenylhydrazone (CCCP) to “load” the cells with EtBr (final concentrations of 25 μM for EtBr and 100 μM for CCCP). Following 20 min of incubation at room temperature, the cells were pelleted and resuspended in 1 mL of fresh CAMHB. Immediately thereafter, 200 μL aliquots were transferred into the wells of white 96‐well plates, which either lacked or contained 50 or 10 μM of each test compound. Fluorescence was monitored continuously using a microplate reader (Infinite M200 Pro, TECAN) at excitation and emission wavelengths of 485 and 645 nm, respectively, for a period of 5 min. The experiments were conducted in triplicate, with two technical replicates per biological replicate. The efflux activity of the SA‐1199B strain was expressed as a percentage of fluorescence decrease over a 5‐min time course. The inhibition of this efflux by the test compounds was determined using the following equation: ([efflux in the absence] ‐ [efflux in the presence of test [compound])/[efflux in the absence of test compound] × 100, which yielded the percent efflux inhibition observed.
^a Experiments were performed in triplicate with two technical replicates per biological replicate. Efflux activity of SA-1199B was expressed as percent fluorescence decrease over a 5 min time course. Inhibition of this efflux by test compounds was determined using the equation [efflux in the absence] − [efflux in the presence of test [compound]/[efflux in the absence of test compound] × 100, giving the percent efflux inhibition observed.

[6] = test system: Staphylococcus aureus SA-1199B; type: cell-based
Source text: For purposes of comparison, compound 1 was included as a reference.

[7] = test system: S. aureus SA-1199 (wild type); assay: MIC determination against wild-type SA-1199; type: cell-based; settings: Staphylococcus aureus, compound alone
Source text: (§3) This finding aligns with their mechanism of action, which involves the inhibition of NorA, which is only basally expressed in the wild‐type SA‐1199 strain.

[8] = test system: S. aureus SA-1199 (wild type); assay: Synergistic assay with CPX against wild-type SA-1199; type: cell-based, Staphylococcus aureus; settings: EPI at 3.13 µg/mL with CPX
Source text: as §3

[9] = test system: S. aureus SA-K1902 (norA-); assay: Checkerboard assay EPI/CPX against SA-K1902; type: cell-based, Staphylococcus aureus
Procedure: (§4) Checkerboard assays were carried out using SA‐K1902 and SA‐K2378 strains according to standard procedures.

[10] = test system: S. aureus SA-K2378 (norA ++); assay: Checkerboard assay EPI/CPX against SA-K2378; type: cell-based, Staphylococcus aureus
Procedure: as §2, §4

[11] = MTT cytotoxicity assay on A549; type: cell-based; settings: human, A549 cells, read-out: Cytotoxicity (% cell viability)
Procedure: (§5) The MTT assay was performed on two human ATCC cell lines, that is, […] (CCL‐185) and MCF7 (HTB‐22), to test the potential cytotoxic effect of the compounds, after 72 h exposure, as previously described. Each compound was tested at concentrations ranging from 12.5 to 100 μg/mL. Untreated cells were considered as controls. The percentage of viable cells was calculated as follows: % Cell viability = 100 × treated well absorbance/untreated control well absorbance. All assays were performed once in technical quadruplicate.

[12] = MTT cytotoxicity assay on MCF7; type: cell-based; settings: human, MCF7 cells, read-out: Cytotoxicity (% cell viability)
Procedure: as §5

T1 sequence (P0A0J7 whole entry): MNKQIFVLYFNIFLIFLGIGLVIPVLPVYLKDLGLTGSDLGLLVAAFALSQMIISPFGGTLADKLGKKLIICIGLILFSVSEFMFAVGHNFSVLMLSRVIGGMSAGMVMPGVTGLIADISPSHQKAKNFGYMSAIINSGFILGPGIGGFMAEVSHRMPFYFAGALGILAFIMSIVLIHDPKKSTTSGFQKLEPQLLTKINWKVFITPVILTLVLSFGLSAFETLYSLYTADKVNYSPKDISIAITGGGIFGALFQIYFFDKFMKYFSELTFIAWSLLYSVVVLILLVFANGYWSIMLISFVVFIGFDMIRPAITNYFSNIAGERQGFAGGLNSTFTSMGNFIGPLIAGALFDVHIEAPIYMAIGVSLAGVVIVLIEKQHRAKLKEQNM

O=C(O)c1cn(C2CC2)c2cc(N3CCNCC3)c(F)cc2c1=O [CPX, ciprofloxacin, reference compound]
MIC [1]: 10 µg/mL (≈ 30.2 µM)
CPX MIC ([2]; CPX alone, SA-K1902 (norA-)): 0.15 µg/mL
CPX MIC ([3]; CPX alone, SA-K2378 (norA ++)): 1.25 µg/mL
increase in biofilm formation ([4]; CPX alone at ½ MIC, vs untreated control): 42%

CN1c2c(-c3ccc(F)cc3)nn(C)c2-c2ccc(OCCN3CCOCC3)cc2S1(=O)=O [Compound 19, 3‐(4‐Fluorophenyl)‐1,4‐dimethyl‐7‐(2‐morpholin‐4‐ylethoxy)‐1,4‐dihydropyrazolo[4,3‐c][1,2]benzothiazine 5,5‐dioxide]
inhibition at 10 µM [5]: 34%
inhibition at 50 µM [5]: > 70%
MIC [1]: > 50 µg/mL
N° fold CPX MIC reduction ([6]; EPI at 3.12 µg/mL): 2 fold
N° fold CPX MIC reduction ([6]; EPI at 12.5 µg/mL): 4 fold
MIC [7]: > 50 µg/mL
synergistic effect with CPX [8]: did not show any synergistic effect
MIC [2]: > 50 µg/mL
CPX MIC ([9]; EPI at 0.2 µg/mL): 0.08 µg/mL
N° CPX MIC reduction ([9]; EPI at 0.2 µg/mL): 2
CPX MIC ([9]; EPI at 0.4 µg/mL): 0.08 µg/mL
N° CPX MIC reduction ([9]; EPI at 0.4 µg/mL): 2
CPX MIC ([9]; EPI at 0.8 µg/mL): 0.08 µg/mL
N° CPX MIC reduction ([9]; EPI at 0.8 µg/mL): 2
CPX MIC ([9]; EPI at 1.6 µg/mL): 0.08 µg/mL
N° CPX MIC reduction ([9]; EPI at 1.6 µg/mL): 2
CPX MIC ([9]; EPI at 3.13 µg/mL): 0.08 µg/mL
N° CPX MIC reduction ([9]; EPI at 3.13 µg/mL): 2
CPX MIC ([9]; EPI at 6.25 µg/mL): 0.08 µg/mL
N° CPX MIC reduction ([9]; EPI at 6.25 µg/mL): 2
CPX MIC ([9]; EPI at 12.5 µg/mL): 0.15 µg/mL
N° CPX MIC reduction ([9]; EPI at 12.5 µg/mL): 0
MIC [3]: 25 µg/mL (≈ 52.9 µM)
CPX MIC ([10]; EPI at 0.2 µg/mL): 0.3 µg/mL
N° CPX MIC reduction ([10]; EPI at 0.2 µg/mL): 4
CPX MIC ([10]; EPI at 0.4 µg/mL): 0.3 µg/mL
N° CPX MIC reduction ([10]; EPI at 0.4 µg/mL): 4
CPX MIC ([10]; EPI at 0.8 µg/mL): 0.3 µg/mL
N° CPX MIC reduction ([10]; EPI at 0.8 µg/mL): 4
CPX MIC ([10]; EPI at 1.6 µg/mL): 0.3 µg/mL
N° CPX MIC reduction ([10]; EPI at 1.6 µg/mL): 4
CPX MIC ([10]; EPI at 3.13 µg/mL): 0.3 µg/mL
N° CPX MIC reduction ([10]; EPI at 3.13 µg/mL): 4
CPX MIC ([10]; EPI at 6.25 µg/mL): 0.16 µg/mL
N° CPX MIC reduction ([10]; EPI at 6.25 µg/mL): 8
effect on biofilm formation in combination with CPX ([4]; EPI at 0.2 µg/mL combined with CPX, SA-K2378): no positive effects

O=[N+]([O-])c1ccc(-n2nc(-c3ccc(Cl)cc3)c3c2-c2ccccc2S(=O)(=O)N3)cc1 [Compound 1, reference compound]
inhibition at 10 µM [5]: 0%
inhibition at 50 µM [5]: 77%
MIC [1]: 50 µg/mL (≈ 110 µM)
N° fold CPX MIC reduction ([6]; EPI at 3.12 µg/mL): 2 fold
N° fold CPX MIC reduction ([6]; EPI at 6.25 µg/mL): 8 fold
N° fold CPX MIC reduction ([6]; EPI at 12.5 µg/mL): 16 fold
MIC [2]: 12.5 µg/mL (≈ 27.6 µM)
CPX MIC ([9]; EPI at 0.8 µg/mL): 0.15 µg/mL
N° CPX MIC reduction ([9]; EPI at 0.8 µg/mL): 0
CPX MIC ([9]; EPI at 1.6 µg/mL): 0.15 µg/mL
N° CPX MIC reduction ([9]; EPI at 1.6 µg/mL): 0
CPX MIC ([9]; EPI at 3.13 µg/mL): 0.15 µg/mL
N° CPX MIC reduction ([9]; EPI at 3.13 µg/mL): 0
MIC [3]: 12.5 µg/mL (≈ 27.6 µM)
CPX MIC ([10]; EPI at 0.8 µg/mL): 0.6 µg/mL
N° CPX MIC reduction ([10]; EPI at 0.8 µg/mL): 2
CPX MIC ([10]; EPI at 1.6 µg/mL): 0.3 µg/mL
N° CPX MIC reduction ([10]; EPI at 1.6 µg/mL): 4
CPX MIC ([10]; EPI at 3.13 µg/mL): 0.3 µg/mL
N° CPX MIC reduction ([10]; EPI at 3.13 µg/mL): 4
viability at 72 h, 12.5 µg/mL ([11]; A549, 12.5 μg/mL): 90 ± 16%
viability at 72 h, 25 µg/mL ([11]; A549, 25 μg/mL): 76 ± 1%
viability at 72 h, 50 µg/mL ([11]; A549, 50 μg/mL): 32 ± 5%
viability at 72 h, 100 µg/mL ([11]; A549, 100 μg/mL): 8 ± 1%
viability at 72 h, 12.5 µg/mL ([12]; MCF7, 12.5 μg/mL): 81 ± 6%
viability at 72 h, 25 µg/mL ([12]; MCF7, 25 μg/mL): 71 ± 3%
viability at 72 h, 50 µg/mL ([12]; MCF7, 50 μg/mL): 50 ± 3%
viability at 72 h, 100 µg/mL ([12]; MCF7, 100 μg/mL): 43 ± 3%
